Results on six compounds are retold here after publication PMC6759758, “Cofactor Selectivity in Methylmalonyl Coenzyme A Mutase, a Model Cobamide-Dependent Enzyme” (mBio, 2019).

A word on the Kd: it is the equilibrium constant for the complex coming apart. Broadly, the kcat is the number of substrate molecules converted per active site and unit of time at saturation.

For test [1], the target named is T1, SmMCM (methylmalonyl-CoA mutase from S. meliloti) (Rhizobium meliloti, UniProt O86028).
T1 construct: made in house; host or cells: E. coli BL21(DE3)pLysS
T1 sequence (O86028 2-712): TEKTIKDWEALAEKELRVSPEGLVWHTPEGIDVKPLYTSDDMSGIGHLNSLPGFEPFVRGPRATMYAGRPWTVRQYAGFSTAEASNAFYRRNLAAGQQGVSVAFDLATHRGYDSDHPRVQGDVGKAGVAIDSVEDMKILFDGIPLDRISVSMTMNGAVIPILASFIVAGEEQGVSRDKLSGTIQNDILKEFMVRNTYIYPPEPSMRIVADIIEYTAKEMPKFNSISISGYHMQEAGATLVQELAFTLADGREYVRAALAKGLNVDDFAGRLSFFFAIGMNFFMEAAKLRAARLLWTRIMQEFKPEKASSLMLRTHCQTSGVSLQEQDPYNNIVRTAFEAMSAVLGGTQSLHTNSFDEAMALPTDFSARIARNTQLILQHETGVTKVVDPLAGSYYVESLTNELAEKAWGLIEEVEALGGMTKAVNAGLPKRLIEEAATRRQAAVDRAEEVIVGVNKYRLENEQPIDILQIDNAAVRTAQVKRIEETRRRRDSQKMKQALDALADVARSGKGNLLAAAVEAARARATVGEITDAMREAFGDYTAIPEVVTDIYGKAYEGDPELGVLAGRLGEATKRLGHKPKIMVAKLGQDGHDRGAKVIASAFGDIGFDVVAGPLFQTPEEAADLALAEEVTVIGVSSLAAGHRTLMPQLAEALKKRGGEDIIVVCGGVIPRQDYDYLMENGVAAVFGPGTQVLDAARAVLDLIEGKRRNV
Briefly: biochemical. In kind it is binding, Sinorhizobium meliloti. The settings on record: for binding to SmMCM detected by fluorescence quench (in words): low-micromolar / micromolar concentrations. The protocol: (§1) All steps involving cobamides were conducted in the dark. The plate was centrifuged for 1 min at 3,800 rpm to level the surface of the liquid in each well. The plate was then incubated for 40 min at 30°C to allow binding, with a brief shaking step after 30 min. […] Following incubation, fluorescence emission at 340 nm (5-nm slit width) was measured upon excitation at 282 nm (5-nm slit width) using a Tecan Infinite M1000 Pro plate reader. Fluorescence, normalized to the initial value, was plotted as a function of cobamide concentration, and fitted to the following equation ([134]): F/F0=1+ΔFmax/F0([E]+[L]+Kd)−([E]+[L]+Kd)^2−4[E][L]/2[E] where F is fluorescence, F0 is initial fluorescence, [E] is total enzyme concentration, [L] is total ligand concentration, and Kd is the binding dissociation constant.

Test [2] deals with T2, SmMCM (Rhizobium meliloti, UniProt O86028).
T2 construct: made in house; host or cells: E. coli BL21(DE3)pLysS
T2 sequence (O86028 2-712): T1 sequence (O86028 2-712)
The experiment in a line: Filtration binding assay. Set-up: species or system Sinorhizobium meliloti. To be noted: 10 μM cobamide, 15 μM SmMCM. The protocol: Cobamides (10 μM) with and without MCM (15 μM) were incubated in 100 mM Tris, 50 mM phosphate, pH 7.5, at 30°C for 40 min, transferred to Nanosep 10K Omega centrifugal devices (Pall Corporation), and centrifuged for 5 min at 13,900 × g to separate unbound cobamides from enzyme-bound cobamides. The UV-Vis spectra of the filtrates were recorded on a BioTek Synergy 2 plate reader.

Test [3] has as its system MCM. Set-up: method as in PMID 10563814. To be noted: cited from earlier work.
Test [4] has as its target T3, EcMCM (E. coli MCM) (Escherichia coli, UniProt P27253).
T3 construct: 6xHis (N); made in house; host or cells: E. coli BL21(DE3)
Briefly: Fluorescence binding assay, EcMCM. The settings on record: read-out: Kd EcMCM; fitted curve, error = standard error of the curve fit. How it is done:
as §1

Test [5] deals with VpMCM (V. parvula MCM) (Veillonella parvula, UniProt A0A124EFR6). The experiment in a line: Fluorescence binding assay, VpMCM. The settings on record: fitted curve, error = standard error of the curve fit; equimolar α and β subunits. The protocol:
The α subunit of VpMCM (encoded by Vpar_RS09005) was expressed with an N-terminal 6×His tag from the pET-Duet expression vector in E. coli BL21(DE3). Protein expression was induced with 520 μM IPTG for 6 h at 30°C. The protein was batch purified by nickel affinity and subsequently purified by FPLC using a HiTrapQ column with an NaCl gradient from 50 to 500 mM in […], pH 8.0, 10% glycerol. The β subunit of VpMCM (encoded by Vpar_RS09000) was expressed separately with an N-terminal 6×His tag from the pET-Duet expression vector in E. coli BL21(DE3). […] Purified protein was dialyzed into 25 mM Tris-HCl, pH 8.0, 300 mM NaCl, 10% glycerol, and 1 mM β-mercaptoethanol. Concentration of pure α and β subunits (Fig. S7) was determined by absorbance at 280 nm (A280) using the theoretically calculated extinction coefficients 75,290 M^−1 cm^−1 and 74,260 M^−1 cm^−1, respectively ([125]). Equimolar amounts of α and β subunits were combined during the setup of fluorescence binding assays.
as §1

In test [6] the target is T4, SmMCM (Sinorhizobium meliloti MCM) (Rhizobium meliloti, UniProt O86028).
T4 construct: made in house; host or cells: E. coli BL21(DE3)pLysS
T4 sequence (O86028 2-712): T1 sequence (O86028 2-712)
The experiment in a line: Thiokinase-coupled spectrophotometric MCM activity assay. The settings on record: SmMCM 50 nM reconstituted with 2 μM cobamide; (R)-methylmalonyl-CoA to succinyl-CoA, steady state, 30°C. In kind it is biochemical. The protocol: Final concentrations of reagents in the assays were as follows: Tris-phosphate buffer (pH 7.5), 100 mM Tris, 50 mM phosphate; dithionitrobenzoate (DTNB), 400 μM; ADP, 1 mM; MgCl2, 10 mM; (R)-methylmalonyl-CoA, 0 to 4 mM; thiokinase, 5 μM; MCM, 50 nM; and cobamides, 2 μM.
Three separate mixes were prepared, all in 1× Tris-phosphate buffer: an assay mix containing DTNB, ADP, and MgCl2; a substrate mix containing (R)-methylmalonyl-CoA; and an enzyme mix containing thiokinase, MCM, and cobamides. All steps involving cobamides were conducted in the dark. The assay and enzyme mixes were prepared as a master mix and aliquoted into 96-well plates; substrate mixes were prepared in individual wells, in triplicate. All components were incubated at 30°C for 40 min to equilibrate temperature and allow prebinding of cobamides and MCM. After incubation, one replicate at a time, the substrate mix was added to the assay mix, followed by the enzyme mix. Absorbance at 412 nm (A412) was recorded immediately after addition of enzyme and for 1 to 3 min, every 3 s, on a BioTek Synergy 2 plate reader. The increase in A412 in reaction mixtures lacking substrate was subtracted from all readings, to account for reactivity of DTNB with thiols on protein surfaces.

In test [7] the test system is MCM. Set-up: method as in PMID 14235521. The settings on record: cited from earlier work.
For test [8], the system named is P. shermanii MCM. Set-up: method as in PMID 11031263. The settings on record: cited from earlier work.
Where [9] appears, read: SmMCM 0.2 μM, pH 7.5, 30°C, average and standard deviation for three or more independent experiments, n. d. = binding too weak to determine Kd.

Where two headings read alike, the source gives them in different places.

T3 sequence (P27253 whole entry): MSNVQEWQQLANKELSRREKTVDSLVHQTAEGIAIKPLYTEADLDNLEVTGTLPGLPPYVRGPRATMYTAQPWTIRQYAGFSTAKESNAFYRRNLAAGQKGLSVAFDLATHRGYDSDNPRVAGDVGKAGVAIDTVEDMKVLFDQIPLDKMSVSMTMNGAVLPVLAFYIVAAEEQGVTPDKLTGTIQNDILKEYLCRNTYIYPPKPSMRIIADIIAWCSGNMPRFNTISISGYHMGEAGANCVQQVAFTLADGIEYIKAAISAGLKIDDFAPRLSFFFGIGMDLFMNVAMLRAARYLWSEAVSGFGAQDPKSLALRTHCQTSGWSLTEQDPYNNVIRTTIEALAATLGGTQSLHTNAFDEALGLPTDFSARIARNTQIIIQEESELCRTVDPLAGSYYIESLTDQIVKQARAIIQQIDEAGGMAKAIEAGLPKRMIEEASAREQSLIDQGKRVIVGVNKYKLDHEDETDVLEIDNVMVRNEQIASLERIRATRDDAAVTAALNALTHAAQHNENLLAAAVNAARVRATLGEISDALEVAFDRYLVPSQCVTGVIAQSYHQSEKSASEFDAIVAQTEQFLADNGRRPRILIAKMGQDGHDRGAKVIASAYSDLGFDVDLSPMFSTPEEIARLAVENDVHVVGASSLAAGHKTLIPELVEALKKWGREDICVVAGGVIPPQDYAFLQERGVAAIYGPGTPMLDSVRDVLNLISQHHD
VpMCM (V. parvula MCM), sequence (A0A124EFR6 entry or part of it): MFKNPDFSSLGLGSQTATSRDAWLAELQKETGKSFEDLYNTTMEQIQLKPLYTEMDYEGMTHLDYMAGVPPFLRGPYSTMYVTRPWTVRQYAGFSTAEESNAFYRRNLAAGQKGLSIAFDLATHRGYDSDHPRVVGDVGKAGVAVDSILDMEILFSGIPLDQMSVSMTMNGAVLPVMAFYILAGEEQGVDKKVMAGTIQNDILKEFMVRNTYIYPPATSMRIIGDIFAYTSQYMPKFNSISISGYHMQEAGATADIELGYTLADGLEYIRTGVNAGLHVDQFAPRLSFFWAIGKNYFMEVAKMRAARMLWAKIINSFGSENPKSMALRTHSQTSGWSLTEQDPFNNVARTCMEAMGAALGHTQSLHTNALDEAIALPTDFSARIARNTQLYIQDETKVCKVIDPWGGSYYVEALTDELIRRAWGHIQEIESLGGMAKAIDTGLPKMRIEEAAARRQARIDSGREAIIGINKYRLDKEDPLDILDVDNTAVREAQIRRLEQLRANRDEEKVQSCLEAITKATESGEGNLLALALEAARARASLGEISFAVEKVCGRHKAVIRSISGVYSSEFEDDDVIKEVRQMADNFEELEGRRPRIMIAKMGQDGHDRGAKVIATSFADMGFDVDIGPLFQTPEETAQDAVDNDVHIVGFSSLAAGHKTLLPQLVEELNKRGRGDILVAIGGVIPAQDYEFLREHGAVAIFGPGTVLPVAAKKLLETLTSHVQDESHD

As to “5-Hydroxybenzimidazolylcobamide [Ado[5-OHBza]Cba]”, the “binding to SmMCM detected by fluorescence quench (in words)” value in test [1] is given as “no binding”. Moreover, the “binding to SmMCM in filtration-based assay” value in test [2] is on record as “little to no binding”.
For the compound `C/C1=C2/[N-][C@H]([C@H](CC(N)=O)[C@@]2(C)CCC(=O)NC[C@@H](C)O)[C@]2(C)N=C(/C(C)=C3N=C(/C=C4N=C1[C@@H](CCC(N)=O)C\4(C)C)[C@@H](CCC(N)=O)[C@]\3(C)CC(N)=O)[C@@H](CCC(N)=O)[C@]2(C)CC(N)=O.[CH2-][C@H]1O[C@@H](n2cnc3c(N)ncnc32)[C@H](O)[C@@H]1O.[Co+3]` [Ado-cobinamide, adenosylcobinamide, reference compound], in test [1], binding was characterised by a dissociation constant (Kd) of 800 ± 200 nM. In addition, the “support of MCM activity in vitro” value in test [3] is reported as “does not support MCM activity”.
With `C/C1=C2/[N-][C@H]([C@H](CC(N)=O)[C@@]2(C)CCC(=O)NC[C@@H](C)OP(=O)([O-])O[C@H]2[C@@H](O)[C@@H](n3cnc4cc(C)c(C)cc43)O[C@@H]2CO)[C@]2(C)N=C(/C(C)=C3N=C(/C=C4N=C1[C@@H](CCC(N)=O)C\4(C)C)[C@@H](CCC(N)=O)[C@]\3(C)CC(N)=O)[C@@H](CCC(N)=O)[C@]2(C)CC(N)=O.[CH2-][C@H]1O[C@@H](n2cnc3c(N)ncnc32)[C@H](O)[C@@H]1O.[Co+3]` [AdoCbl, adenosylcobalamin, reference compound], the dissociation constant (Kd) in test [1] (setting [9]) came to 30 ± 20 nM; in test [4] it was 600 ± 100 nM; in test [5] it was 2800 ± 600 nM. Besides, the kcat in test [6] amounted to 26 ± 1 s⁻¹. In test [7], the “MCM activity in S. meliloti bacteroids” value is “highest”.
Regarding `C/C1=C2/[N-][C@H]([C@H](CC(N)=O)[C@@]2(C)CCC(=O)NC[C@@H](C)OP(=O)([O-])O[C@H]2[C@@H](O)[C@@H](n3cnc4ncnc(N)c43)O[C@@H]2CO)[C@]2(C)N=C(/C(C)=C3N=C(/C=C4N=C1[C@@H](CCC(N)=O)C\4(C)C)[C@@H](CCC(N)=O)[C@]\3(C)CC(N)=O)[C@@H](CCC(N)=O)[C@]2(C)CC(N)=O.[CH2-][C@H]1O[C@@H](n2cnc3c(N)ncnc32)[C@H](O)[C@@H]1O.[Co+3]` [Ado[Ade]Cba, Adeninylcobamide], the “binding to SmMCM detected by fluorescence quench (in words)” value in test [1] is “did not bind to any significant extent”. Besides, the Kd is 1600 ± 400 nM in test [4] and 9000 ± 4000 nM in test [5]. Further, in test [2], the “binding to SmMCM in filtration-based assay” value is “did not bind to any significant extent”. Moreover, the “MCM activity in S. meliloti bacteroids” value in test [7] was “absent”.
Regarding `C/C1=C2/[N-][C@H]([C@H](CC(N)=O)[C@@]2(C)CCC(=O)NC[C@@H](C)OP(=O)([O-])O[C@H]2[C@@H](O)[C@@H](n3cnc4ccccc43)O[C@@H]2CO)[C@]2(C)N=C(/C(C)=C3N=C(/C=C4N=C1[C@@H](CCC(N)=O)C\4(C)C)[C@@H](CCC(N)=O)[C@]\3(C)CC(N)=O)[C@@H](CCC(N)=O)[C@]2(C)CC(N)=O.[CH2-][C@H]1O[C@@H](n2cnc3c(N)ncnc32)[C@H](O)[C@@H]1O.[Co+3]` [Ado[Bza]Cba, Benzimidazolylcobamide], the dissociation constant (Kd) in test [1] (setting [9]) was found to be 400 ± 200 nM; in test [4] it was 1800 ± 200 nM; in test [5] it was 1400 ± 300 nM. The “MCM activity in S. meliloti bacteroids” value in test [7] is given as “intermediate”.
`C/C1=C2/[N-][C@H]([C@H](CC(N)=O)[C@@]2(C)CCC(=O)NC[C@@H](C)OP(=O)([O-])OP(=O)([O-])OC[C@H]2O[C@@H](n3cnc4c(=O)[nH]c(N)nc43)[C@H](O)[C@@H]2O)[C@]2(C)N=C(/C(C)=C3N=C(/C=C4N=C1[C@@H](CCC(N)=O)C\4(C)C)[C@@H](CCC(N)=O)[C@]\3(C)CC(N)=O)[C@@H](CCC(N)=O)[C@]2(C)CC(N)=O.[CH2-][C@H]1O[C@@H](n2cnc3c(N)ncnc32)[C@H](O)[C@@H]1O.[Co]` [adenosylcobinamide-GDP]: the “support of P. shermanii MCM activity compared to AdoCbl” value in test [8] was “only slight catalytic impairment”.
